IC50 data for 26 compounds are collected here from patent US20090062294A1, “HETEROARYL-SUBSTITUTED UREA MODULATORS OF FATTY ACID AMIDE HYDROLASE” (priority 2007, published 2009).

Assay [1] has as its target T1, FAAH (Homo sapiens, UniProt O00519).
T1 sequence (O00519 1-579): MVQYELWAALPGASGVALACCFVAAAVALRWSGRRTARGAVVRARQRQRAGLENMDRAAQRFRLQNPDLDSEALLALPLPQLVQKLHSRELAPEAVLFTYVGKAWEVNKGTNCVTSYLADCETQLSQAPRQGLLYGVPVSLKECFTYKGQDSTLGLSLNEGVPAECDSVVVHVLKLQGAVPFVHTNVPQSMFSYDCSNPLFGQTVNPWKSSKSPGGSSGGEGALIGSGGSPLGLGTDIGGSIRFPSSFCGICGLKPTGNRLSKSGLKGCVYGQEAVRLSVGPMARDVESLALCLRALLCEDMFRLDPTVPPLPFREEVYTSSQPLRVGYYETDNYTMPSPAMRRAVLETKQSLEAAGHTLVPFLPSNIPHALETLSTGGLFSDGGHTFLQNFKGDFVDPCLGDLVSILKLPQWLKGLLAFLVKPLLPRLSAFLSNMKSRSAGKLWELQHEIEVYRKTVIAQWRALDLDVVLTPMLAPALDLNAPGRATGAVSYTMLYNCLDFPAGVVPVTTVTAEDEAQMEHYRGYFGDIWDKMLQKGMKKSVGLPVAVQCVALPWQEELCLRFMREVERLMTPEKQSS
Nature of the assay: Assay Method 1: FAAH assay, 3H-anandamide hydrolysis in homogenate of T84 cells or SK-N-MC cells transfected with human FAAH. The class given is biochemical. As to conditions: average of results, > = solubility limit or highest concentration tested. In outline: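 Hydrolysis of ^3H-anandamide (80 nM final, added last) was measured over 1 h at rt, using test compound with homogenate of T84 cells or human FAAH-transfected SK-N-MC cells. The homogenization buffer was 125 mM Tris, 1 mM EDTA, 0.02% Triton X-100, pH 9. Unbound labelled ethanolamine was passed through charcoal filters and scintillation-counted.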

For assay [2], the target named is T2, rat FAAH (Rattus norvegicus, UniProt P97612).
T2 sequence (P97612 1-579): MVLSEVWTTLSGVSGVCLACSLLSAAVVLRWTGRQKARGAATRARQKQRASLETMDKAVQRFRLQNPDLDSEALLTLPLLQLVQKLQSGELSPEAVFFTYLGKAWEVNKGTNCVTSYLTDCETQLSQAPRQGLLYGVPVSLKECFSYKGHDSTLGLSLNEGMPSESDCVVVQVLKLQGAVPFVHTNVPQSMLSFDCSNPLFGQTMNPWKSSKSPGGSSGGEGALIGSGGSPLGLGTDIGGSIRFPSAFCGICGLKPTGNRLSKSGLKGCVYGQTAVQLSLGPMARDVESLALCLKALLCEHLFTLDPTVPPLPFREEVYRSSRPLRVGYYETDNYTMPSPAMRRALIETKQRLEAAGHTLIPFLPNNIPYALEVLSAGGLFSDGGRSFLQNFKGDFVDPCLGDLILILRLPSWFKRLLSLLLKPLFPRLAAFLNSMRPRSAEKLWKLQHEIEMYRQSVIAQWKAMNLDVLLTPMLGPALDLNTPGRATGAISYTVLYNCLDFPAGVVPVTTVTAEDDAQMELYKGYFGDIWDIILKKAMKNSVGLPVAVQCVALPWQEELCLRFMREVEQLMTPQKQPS
Nature of the assay: Assay Method 2: FAAH assay, 3H-anandamide hydrolysis in homogenate of SK-N-MC cells transfected with rat FAAH. As to conditions: average of results, > = solubility limit or highest concentration tested. The class given is biochemical. In outline: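 Read-out is scintillation counting of [3H]-ethanolamine passing through activated charcoal, after 1 h at rt with 80 nM final [3H]-AEA. Enzyme source: lysate of G418-selected SK-N-MC clones expressing rat FAAH, homogenized in Tris/EDTA/glycerol/0.02% Triton buffer, pH 9.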

Each structure is given as a SMILES string. pIC50: −log10 of the molar value. Where a name gives a salt, the structure may show the parent alone. Some results are limits rather than exact numbers.

Broadly, the pIC50 is the IC50 on a negative log10 scale, so that one unit is a factor of ten. Higher therefore signals a low IC50. `N#Cc1ccc(Oc2cccc(CN3CCN(C(=O)Nc4nn[nH]n4)CC3)c2)cc1` [Example 187, 4-[3-(4-Cyanophenoxy)benzyl]-N-2H-tetrazol-5-ylpiperazine-1-carboxamide]: the negative logarithm of the IC50 (pIC50) in assay [1] is 5.80; in assay [2] it was 6.00.
With `O=C(Nc1nn[nH]n1)N1CCN(Cc2cccc(Oc3ccc(OCC(F)(F)F)cc3)c2)CC1` [Example 188, N-2H-Tetrazol-5-yl-4-{3-[4-(2,2,2-trifluoroethoxy)phenoxy]benzyl}-piperazine-1-carboxamide], the figures for the pIC50 in assay [1] and in assay [2] were 7.10 and 7.70, respectively.
With `O=C(Nc1nn[nH]n1)N1CCN(Cc2cccc(Oc3ccc4c(c3)OC(F)(F)O4)c2)CC1` [Example 189, 4-{3-[(2,2-Difluoro-1,3-benzodioxol-5-yl)oxy]benzyl}-N-2H-tetrazol-5-ylpiperazine-1-carboxamide], the pIC50 in assay [1] was 7.15; in assay [2], 7.77.
As to `O=C(Nc1nn[nH]n1)N1CCN(Cc2cccc(Oc3ccccc3Cl)c2)CC1` [Example 190, 4-[3-(2-Chlorophenoxy)benzyl]-N-2H-tetrazol-5-ylpiperazine-1-carboxamide], the pIC50 in assay [1] was 5.52; in assay [2], 5.43.
Turning to `Cc1cc(NC(=O)N2CCN(Cc3cccc(Oc4ccc(Cl)cc4)c3)CC2)nn1C` [Example 191, 4-[3-(4-Chloro-phenoxy)-benzyl]-piperazine-1-carboxylic acid (1,5-dimethyl-1H-pyrazol-3-yl)-amide trifluoroacetic acid salt], the pIC50 was 5.52 in assay [1] and less than 5.00 in assay [2].
In the case of `Cn1cc(Br)c(NC(=O)N2CCN(Cc3cccc(Oc4ccc(Cl)cc4)c3)CC2)n1` [Example 192, 4-[3-(4-Chloro-phenoxy)-benzyl]-piperazine-1-carboxylic acid (4-bromo-1-methyl-1H-pyrazol-3-yl)-amide trifluoroacetic acid salt], the values for the pIC50 in assay [1] and in assay [2] were 5.40 and less than 5.00, respectively.
Regarding `CCn1nccc1NC(=O)N1CCN(Cc2cccc(Oc3ccc(Cl)cc3)c2)CC1` [Example 193, 4-[3-(4-Chloro-phenoxy)-benzyl]-piperazine-1-carboxylic acid (2-ethyl-2H-pyrazol-3-yl)-amide trifluoroacetic acid salt], the pIC50 is 6.49 in assay [1] and 5.22 in assay [2].
For the compound `Cc1cc(NC(=O)N2CCN(Cc3cccc(Oc4ccc(Cl)cc4)c3)CC2)n[nH]1` [Example 194, 4-[3-(4-Chlorophenoxy)benzyl]-N-(5-methyl-1H-pyrazol-3-yl)piperazine-1-carboxamide], the values for the pIC50 in assay [1] and in assay [2] were 6.66 and 5.40, respectively.
Turning to `O=C(Nc1cccnn1)N1CCN(Cc2ccc(Br)c(Br)c2)CC1` [Example 195, 4-(3,4-Dibromobenzyl)-N-pyridazin-3-ylpiperazine-1-carboxamide], the pIC50 in assay [1] was 6.96; in assay [2] it was 6.51.
Turning to `O=C(Nc1cccnn1)N1CCN(Cc2ccc3c(c2)OC(F)(F)O3)CC1` [Example 196, 4-[(2,2-Difluoro-1,3-benzodioxol-5-yl)methyl]-N-pyridazin-3-ylpiperazine-1-carboxamide], the pIC50 in assay [1] is 5.22; in assay [2], 5.80.
Turning to `O=C(Nc1cccnn1)N1CCN(Cc2cnc3ccccc3c2)CC1` [Example 197, N-Pyridazin-3-yl-4-(quinolin-3-ylmethyl)piperazine-1-carboxamide], the pIC50 is 5.89 in assay [1] and 5.05 in assay [2].
`O=C(Nc1cccnn1)N1CCN(Cc2ccc3ccccc3n2)CC1` [Example 198, N-Pyridazin-3-yl-4-(quinolin-2-ylmethyl)piperazine-1-carboxamide]: the negative-log IC50 (pIC50) is 6.41 in assay [1] and 5.22 in assay [2].
Taken in the same sequence, the figures for `O=C(Nc1cccnn1)N1CCN(Cc2ccc(Cl)c(Cl)c2)CC1` [Example 199, 4-(3,4-Dichlorobenzyl)-N-pyridazin-3-ylpiperazine-1-carboxamide] were 6.55 and 6.23.
On the same counts, the results for `O=C(Nc1cccnn1)N1CCN(Cc2ccc3ccccc3c2)CC1` [Example 200, 4-(Naphthalen-2-ylmethyl)-N-pyridazin-3-ylpiperazine-1-carboxamide] are 7.42 and 6.30.
As to `O=C(Nc1cccnn1)N1CCN(Cc2ccc3[nH]ccc3c2)CC1` [Example 201, 4-(1H-Indol-5-ylmethyl)-N-pyridazin-3-ylpiperazine-1-carboxamide], the pIC50 in assay [1] and in assay [2] was less than 5.00 each time.
For `O=C(Nc1cccc2nsnc12)N1CCN(Cc2cccc(C#Cc3ccccc3)c2)CC1` [Example 202, N-2,1,3-Benzothiadiazol-4-yl-4-{[3-(phenylethynyl)phenyl]methyl}-piperazine-1-carboxamide], the negative logarithm of the IC50 (pIC50) in assay [1] is 7.35; in assay [2] it was 7.07.
Regarding `O=C(Nc1cccc2nonc12)N1CCN(Cc2cccc(C#Cc3ccccc3)c2)CC1` [Example 203, N-2,1,3-Benzoxadiazol-4-yl-4-{[3-(phenylethynyl)phenyl]methyl}-piperazine-1-carboxamide], the pIC50 is 6.68 in assay [1] and 6.46 in assay [2].
Consider `O=C(Nc1noc2ccccc12)N1CCN(Cc2cccc(Oc3ccc(C(F)(F)F)c(Cl)c3)c2)CC1` [Example 204, 4-[3-(3-Chloro-4-trifluoromethyl-phenoxy)-benzyl]-piperazine-1-carboxylic acid benzo[d]isoxazol-3-ylamide trifluoroacetic acid salt], for which the pIC50 was 7.85 in assay [1] and 7.49 in assay [2].
As to `O=C(Nc1noc2ccccc12)N1CCN(Cc2cccc(Oc3ccc(Cl)c(C(F)(F)F)c3)c2)CC1` [Example 205, 4-[3-(4-Chloro-3-trifluoromethyl-phenoxy)-benzyl]-piperazine-1-carboxylic acid benzo[d]isoxazol-3-ylamide trifluoroacetic acid salt], the pIC50 is 6.97 in assay [1] and 6.65 in assay [2].
Take `O=C(Nc1noc2ccccc12)N1CCN(Cc2cccc(Oc3ccc(Cl)c(F)c3)c2)CC1` [Example 206, 4-[3-(4-Chloro-3-fluoro-phenoxy)-benzyl]-piperazine-1-carboxylic acid benzo[d]isoxazol-3-ylamide]: the pIC50 in assay [1] was 7.96; in assay [2], 7.68.
Consider `O=C(Nc1noc2ccccc12)N1CCN(Cc2cccc(Oc3ccc(F)c(Cl)c3)c2)CC1` [Example 207, 4-[3-(3-Chloro-4-fluoro-phenoxy)-benzyl]-piperazine-1-carboxylic acid benzo[d]isoxazol-3-ylamide], for which the pIC50 was 7.47 in assay [1] and 7.34 in assay [2].
On to `O=C(Nc1noc2ccccc12)N1CCN(Cc2cccc(Oc3ccc(F)cc3)c2)CC1` [Example 208, 4-[3-(4-Fluoro-phenoxy)-benzyl]-piperazine-1-carboxylic acid benzo[d]isoxazol-3-ylamide], for which the pIC50 is 7.68 in assay [1] and 7.77 in assay [2].
For `CCCCc1ccc(Oc2cccc(CN3CCN(C(=O)Nc4noc5ccccc45)CC3)c2)cc1` [Example 209, 4-[3-(4-Butyl-phenoxy)-benzyl]-piperazine-1-carboxylic acid benzo[d]isoxazol-3-ylamide], the values for the pIC50 in assay [1] and in assay [2] were 8.05 and 8.70, respectively.
Regarding `O=C(Nc1cnccn1)N1CCN(Cc2ccc3c(c2)OC(F)(F)O3)CC1` [Example 210, 4-[(2,2-Difluoro-1,3-benzodioxol-5-yl)methyl]-N-pyrazin-2-ylpiperazine-1-carboxamide], the figures for the pIC50 in assay [1] and in assay [2] were 5.76 and 5.94, respectively.
Consider `O=C(Nc1cnccn1)N1CCN(Cc2ccc3c(c2)OCO3)CC1` [Example 211, 4-(1,3-Benzodioxol-5-ylmethyl)-N-pyrazin-2-ylpiperazine-1-carboxamide], for which the pIC50 in assay [1] is 5.52; in assay [2], less than 5.00.
In the case of `O=C(Nc1cnccn1)N1CCN(Cc2ccc(Br)cc2)CC1` [Example 212, 4-(4-Bromobenzyl)-N-pyrazin-2-ylpiperazine-1-carboxamide], the pIC50 is 6.30 in assay [1] and 5.10 in assay [2].
